Publication PMC11858513, “Antibiofilm Activities of Tritrpticin Analogs Against Pathogenic Pseudomonas aeruginosa PA01 Strains” (Molecules, 2025)
Converted amounts (≈) assume the structure as drawn. Non-standard residues stand in square brackets, D forms with d. Residues, ends and D or L forms follow the SMILES beside them. Dap = NC[C@H](N)C(=O)O

Legend:
[1] = system: peripheral blood mononuclear cells (PBMCs); settings: cited from earlier work
Excerpt: (§1) Overall, our work highlights the potential of […] analogs in comparison to related Trp-rich AMPs as potent antibiofilm peptides that can interfere in biofilms produced by P. aeruginosa and potentially other Gram-negative pathogenic bacteria. New antibiofilm agents are welcome for this organism, as P. aeruginosa is well-known to have numerous mechanisms to elude the action of antibiotics during biofilm formation. Various factors can influence the suitability of AMPs to act as bactericidal and antibiofilm peptides simultaneously (for a general discussion see, for example, [74]). One ...

red blood cells = settings: cited from earlier work
Excerpt: as §1

P. aeruginosa PAO1 GFP [2] = assay: MIC against planktonic cells, absorbance at 600 nm; assay type: cell-based, Pseudomonas aeruginosa; settings: Table 3, Tritrp-Lys derivatives, BM2 medium, absorbance 600 nm, three replicates
Summary of the method: (§2)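 GFP-expressing P. aeruginosa PAO1 exposed to peptides; planktonic MIC read by absorbance at 600 nm, while MBIC (prevention) and MBEC (eradication) used biofilm GFP fluorescence at 480/530 nm. Triplicate biological replicates averaged, with untreated growth and medium-only controls on each plate.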

P. aeruginosa PAO1 GFP [3] = assay: MBEC, biofilm eradication, GFP fluorescence method; assay type: cell-based, Pseudomonas aeruginosa; settings: Table 3, Tritrp-Lys derivatives, BM2 medium, three replicates
Summary of the method: as §2

P. aeruginosa PAO1 [4] = assay type: cell-based, Pseudomonas aeruginosa; settings: Table 6, Tritrp-Lys derivatives; PAO1, BM2; absorbance 600 nm; three replicates; unit not given
Summary of the method: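 PAO1 tested with peptides in 1× BM2; planktonic growth read at 600 nm, biofilm quantified by 0.1% crystal violet staining (15 min), ethanol release and 595 nm reading, using a Calgary biofilm device. Values are means of three replicates with untreated-growth and medium-only controls.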

P. aeruginosa PAO1 [5] = assay type: cell-based; settings: Table 6, Tritrp-Lys derivatives; PAO1, BM2; 0.1% crystal violet 15 min, released with 95% ethanol, 595 nm; three replicates; unit not given
Summary of the method: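 Peptides tested against P. aeruginosa PAO1 in 1× BM2 medium; planktonic growth read at 600 nm for MIC. Biofilm inhibition and eradication quantified by 0.1% crystal violet staining (15 min), ethanol release, absorbance at 595 nm, plus GFP-fluorescence and Calgary peg-device methods; triplicate means.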

P. aeruginosa PAO1 GFP [6] = assay: MBIC, prevention of biofilm formation, GFP fluorescence method; assay type: cell-based, Pseudomonas aeruginosa; settings: Table 3, Tritrp-Lys derivatives, BM2 medium, three replicates
Summary of the method: as §2

Structure (SMILES): CC(C)C[C@H](NC(=O)[C@H](Cc1ccccc1)NC(=O)[C@@H]1CCCN1C(=O)[C@H](Cc1c[nH]c2ccccc12)NC(=O)[C@H](Cc1c[nH]c2ccccc12)NC(=O)[C@H](Cc1c[nH]c2ccccc12)NC(=O)[C@@H]1CCCN1C(=O)[C@H](Cc1ccccc1)NC(=O)[C@H](CN)NC(=O)[C@H](CN)NC(=O)[C@@H](N)C(C)C)C(=O)N[C@@H](CN)C(=O)N[C@@H](CN)C(N)=O [Tritrp-Dap] (H-V[Dap][Dap]FPWWWPFL[Dap][Dap]-NH2; N-terminus assumed)
- cytotoxicity activities against PBMCs [1]: no effect
- effect on RBCs (red blood cells): no effect
- MIC at 600 nm LD50 (P. aeruginosa PAO1 GFP [2]): 8 µmol/L (≈ 13 µg/mL)
- MIC at 600 nm LD90 (P. aeruginosa PAO1 GFP [2]): 8 µmol/L (≈ 13 µg/mL)
- MBEC at 488 and 530 nm LD50 (P. aeruginosa PAO1 GFP [3]): 8 µmol/L
- MBEC at 488 and 530 nm LD90 (P. aeruginosa PAO1 GFP [3]): 64 µmol/L
- MIC at 600 nm LD50 (P. aeruginosa PAO1 [4]): 8
- MIC at 600 nm LD90 (P. aeruginosa PAO1 [4]): 16
- MBEC (CV at 595 nm) LD90 (P. aeruginosa PAO1 [5]): 64
- MBIC (CV at 595 nm) LD90 (P. aeruginosa PAO1 [5]): 16
- MBIC at 488 and 530 nm LD50 (P. aeruginosa PAO1 GFP [6]): 8 µmol/L
- MBIC at 488 and 530 nm LD90 (P. aeruginosa PAO1 GFP [6]): 16 µmol/L
